Several values for one entry are separate records, joined by “and”; a condition that tells them apart may be missing. Identical values can stand only once. Entries after “also recorded” stand apart in the source; their conditions may differ. Non-standard residues stand in square brackets, D forms with d. Residues, ends and D or L forms follow the SMILES beside them. ξ: configuration not given here. *: point of attachment. Benzoyl(2,6-F2) = O=C(c1c(F)cccc1F)*; Benzoyl(4-F) = O=C(c1ccc(F)cc1)*; ξR = N=C(N)NCCCC(N)C(=O)O; Nle = CCCC[C@H](N)C(=O)O; Bz = O=C(c1ccccc1)*; CF3 = FC(F)(F)*
Columns and labels:
[1] = target: T1, DENV2 NS2B:NS3pro (Dengue virus type 2, UniProt P29990); assay: 1H-15N TROSY chemical shifts/CSP, oxyanion hole and H51 of NS2B:NS3pro complexes; type: binding, serotype II Dengue virus (DENV2)
T1 construct: DENV2 NS3pro (1–185; amino acids 1476–1660 of the polyprotein); NS2B (containing amino acids 1394–1440 of the Dengue 2 polyprotein); His tag; made in house; host or cells: Escherichia coli BL21Star (DE3)
Protocol: The NS2B:NS3pro complex was concentrated in disposable centrifugal concentrators (e.g. Amicon Ultra centrifugal filter units) with a molecular weight cut-off of 10 kDa. The complex was stable during concentration and no leakage of NS2B occurred. Buffer was exchanged using gravity flow desalting columns (GE Healthcare). The NMR buffer contained 20 mM deuterated MES, 100 mM NaCl, 5 mM CaCl2, 0.02% NaN3, at pH 6.5. The buffer-exchanged protein was concentrated to at least 0.3 mM. To obtain spectra in D2O buffer protein complex with inhibitor was lyophilized and dissolved adding only D2O water.
(§1) NMR experiments were acquired on Bruker Avance III spectrometers operating at 14.1 and 16.4 T at a temperature of 298 K. 2D ^1H-^15N TROSY -transverse relaxation optimized spectroscopy (TROSY) was used. ^19F experiments were acquired on a Bruker Avance III 16.4 T equipped with a QCIF CryoProbe, and internally referenced to the trifluoromethyl acetate counter ion (− 76.55 ppm). For solvent isotope shift measurements the buffer was exchanged from 90% H2O to 90% D2O using centrifugation filters by following dilution of the sample till starting concentration. The consistency of the procedure has been tested through comparison of the ^1H-^15N spectra before and after buffer exchange back to starting condition. There was no major structural perturbations resulted from exchange into deuterated buffer conditions. Protein detected experiments with ligand bound used a chemical shift perturbation (CSP) analysis was performed manually in CcpNmr Analysis 2.2.2 [60]. CSP was defined as the distance between two cross peaks in Hz, obtained as the square root of the sum of quadratic using DANGLE [61].
Backbone resonance assignment of the NS2B:NS3pro with tetra peptide boronic acid (I) was performed as described previously by us with depositing to the BioMagResBank with accession code 26996 [10, 62], and compared with published earlier for the same inhibitor complex but with the linked construct Dengue I NS2B:NS3pro (BioMagResBank with accession code 19305). Backbone resonance assignment have been done in the same manner for the complex NS2B:NS3pro with the tetra peptide tfk ligand (II) as well and will be published elsewhere. Partial assignments of the ^1H and ^15N resonances presented in this publication of the apo form NS2B:NS3pro and its mutants in complex with inhibitors observed to the uncrowded area of the ^1H-^15N spectra are made by the extrapolation of corresponding cross peaks to the closest one known amino acids using CCPN program tool. […]

[2] = target: T1, DENV2 NS2B:NS3pro; conditions: earlier NMR study; cited from earlier work
Excerpt: The unusual large low-filed shift of N^δ1H (19.93 ppm) of H51 combined with a N-H splitting of only 52 Hz clearly indicated the ...

[3] = system: NS2B:NS3pro (H51N); assay: 19F and 1H-15N TROSY NMR binding to H51N mutant; set-up: species or system serotype II Dengue virus (DENV2); conditions: 1H-15N TROSY and 19F NMR, same protein:inhibitor ratio as wild type
Excerpt: (§2) Reagents were from Sigma (St. Louis, MO, USA) unless otherwise stated. DENV2 NS3pro (1–185; amino acids 1476–1660 of the polyprotein) and NS2B (containing amino acids 1394–1440 of the Dengue 2 polyprotein) constructs were generated as described. H51N and S135A mutations of active site residues were introduced using the QuikChange Lightning kit (Agilent); a double H51N/S135A mutant was generated sequentially. All sequences were confirmed by Sanger sequencing. NS2B and NS3pro were expressed separately in Escherichia coli expression strain BL21Star (DE3) (Life Technologies) as described. Proteins were expressed in Terrific Broth medium (MP Biomedicals) for unlabelled protein or in different isotopic labelling combinations in ^1/2H, ^15N, ^12/13C-labelled M9 medium for labelled protein [54]. […]
(§3) NMR experiments were acquired on Bruker Avance III spectrometers operating at 14.1 and 16.4 T at a temperature of 298 K. 2D ^1H-^15N TROSY -transverse relaxation optimized spectroscopy (TROSY) was used. ^19F experiments were acquired on a Bruker Avance III 16.4 T equipped with a QCIF CryoProbe, and internally referenced to the trifluoromethyl acetate counter ion (− 76.55 ppm). […] Protein detected experiments with ligand bound used a chemical shift perturbation (CSP) analysis was performed manually in CcpNmr Analysis 2.2.2 [60]. […]

[4] = target: T1, DENV2 NS2B:NS3pro; assay: Low field 1D 1H NMR of NS2B:NS3pro complexes (LBHB, H51-D75); type: binding, serotype II Dengue virus (DENV2)
Protocol: The NS2B:NS3pro complex was concentrated in disposable centrifugal concentrators (e.g. Amicon Ultra centrifugal filter units) with a molecular weight cut-off of 10 kDa. The complex was stable during concentration and no leakage of NS2B occurred. Buffer was exchanged using gravity flow desalting columns (GE Healthcare). […] The buffer-exchanged protein was concentrated to at least 0.3 mM. To obtain spectra in D2O buffer protein complex with inhibitor was lyophilized and dissolved adding only D2O water.
as §1

[5] = target: T1, DENV2 NS2B:NS3pro; assay: 19F NMR solvent isotope shift (H2O vs D2O), water accessibility of NS2B:NS3pro complex; set-up: species or system serotype II Dengue virus (DENV2); conditions: inhibitor bound to DENV2 NS2B:NS3pro
Protocol: The accessibility of water in the binding site of the complex with bound inhibitor was tested by studying the ^19F spectra of the complexes NS2B:NS3pro (II) in two different solvents: H2O and D2O (Fig. S2). […] This CSP was scaled versus the signals of the same group of the unbound ligand, ca 48 Hz (Fig. S2c). The conclusion is that ^19F nuclei of the benzene ring of the bound inhibitor are partly exposed to the solvent even in the bound state.
The NS2B:NS3pro complex was concentrated in disposable centrifugal concentrators (e.g. Amicon Ultra centrifugal filter units) with a molecular weight cut-off of 10 kDa. The complex was stable during concentration and no leakage of NS2B occurred. Buffer was exchanged using gravity flow desalting columns (GE Healthcare). The NMR buffer contained 20 mM deuterated MES, 100 mM NaCl, 5 mM CaCl2, 0.02% NaN3, at pH 6.5. […]
as §3

[6] = target: T1, DENV2 NS2B:NS3pro; assay: 19F NMR monitoring of inhibitor binding to wild-type NS2B:NS3pro; set-up: species or system serotype II Dengue virus (DENV2); conditions: 298 K
Excerpt: The subside part of peptide types of inhibitors either improves or prevents correct binding with the enzyme in the most favourable way. One way to probe stereo-selectivity in enzymes is to study an inhibitor with the wrong stereochemistry around the carbon, Cα, of the P1 (Arg) (for abbreviation see Table 1). The key question is: could both isomers bind to NS2B:NS3pro complex? If yes, is there any difference in affinity between them. To challenge these questions two separated diastereomers of Ph-Bz-Lys-Lys-Arg-CF3-ketone (III) (Table 1) with low affinity were used to observe the binding. The isolated diastereomers were kept in solution with and without the NS2B/NS3 complex for two months with measuring at several points. For the first separated isomer (IIIa), only one ^19F resonance is observed at − 82.83 ppm in the unbound state (Fig. 1a). […]
as §3

[7] = system: NS2B:NS3pro (S135A); assay: 19F and 1H-15N TROSY NMR binding to S135A mutant; set-up: species or system serotype II Dengue virus (DENV2); conditions: 1H-15N TROSY and 19F NMR
Excerpt: as §2, §3

[8] = target: T1, DENV2 NS2B:NS3pro; assay: Biochemical protease activity assay, fluorogenic AMC substrate; set-up: species or system serotype II Dengue virus (DENV2); conditions: 50 mM HEPES pH 7.4, 150 mM NaCl, 10% ethylene glycol, 0.05% BSA, 0.0016% Brij-58; 80 nM enzyme; 20 μM Bz-nle-Lys-Arg-Arg-AMC; fluorescence 390/460 nm every 30 s for 30 min; three parameter IC50 fit
Protocol: Activity assays were carried out on a 96-well plate (white Cliniplate, Thermo Fisher Scientific Oy, Vantaa, Finland) in 50 mM HEPES, pH 7.4, 150 mM NaCl, 10% ethylene glycol, 0.05% BSA, 0.0016% Brij-58 with 80 nM enzyme using 20 μM Bz-nle-Lys-Arg-Arg-AMC (Bachem, Bubendorf, Switzerland) as substrate. Reagents were from Sigma (St. Louis, MO, USA) unless otherwise stated.
5 μl of 200 μM substrate in buffer and 2.5 μl of compound in DMSO or DMSO control were added to the plate. 42.5 μl of […] enzyme in buffer was added to start the reaction. Fluorescence was read every 30 s for 30 min at 390 nm excitation and 460 nm emission in a Fluorskan Ascent plate reader (Thermo Fisher Scientific Oy, Vantaa, Finland). Rates were fitted in the Ascent software and exported as Excel files. The rates were imported into GraphPad Prism (GraphPad Software Inc., La Jolla, CA, USA) and fitted to the standard three parameter IC50 equation.

Molecule: CCCC[C@H](NC(=O)c1ccccc1)C(=O)N[C@@H](CCCCN)C(=O)N[C@@H](CCCNC(=N)N)C(=O)N[C@@H](CCCNC(=N)N)B(O)O [I, ((3S,6S,9S,12R)-17-amino-6-(4-aminobutyl)-3-butyl-9-(3-guanidinopropyl)-17-imino-1,4,7,10-tetraoxo-1-phenyl-2,5,8,11,16-pentaazaheptadecan-12-yl)boronic acid]
- H51-HN 1H chemical shift in complex ([1]; apo 10.56 and 10.18 ppm): 10.03 ppm
- H51-HN 15N chemical shift in complex ([1]; apo 114.44 and 114.37 ppm): 113.50 ppm
- Amide CSP of the oxyanion hole ([1]; complex vs apo form): ~0.3 ppm
- Interaction with oxyanion hole ([1]; complex with NS2B:NS3pro): we did not observe interaction of G133 in the oxyanion hole; also recorded: no interaction with the oxyanion hole
- N-H splitting of Nδ1H of H51 [2]: 52 Hz
- NδH shift of H51 in complex [2]: 19.93 ppm
- Affinity / complex formation with H51N mutant [3]: saturation of the protease and inhibitor complex could not be reached
- Decrease of Nδ1H one-bond coupling vs commonly reported serine proteases ([4]; commonly 87-95 Hz): about 38 Hz
- One bond JNH of Nδ1H H51, 19.93 ppm signal ([4]; first tautomer): 52+/− 2 Hz and 52 Hz
- One bond JNH of Nε2H H51 ([4]; first tautomer): 90+/− 2 Hz and 90 Hz
- Nδ1H of H51, second tautomer, 1H chemical shift ([4]; most persistent signal, pH 8.5 Tris): 19.77 ppm and 19.772 ppm
- pH dependence of low field 1H chemical shift ([4]; pH 5.5 to 8.5): None of the signals in this region shift between pH 5.5 and 8.5
- Nδ1H of H51, first tautomer, 1H chemical shift ([4]; pH 6.0 MES, not always observed): 19.93 ppm and 19.933 ppm
- One bond JNH of Nδ1H H51, 19.77 ppm signal ([4]; second tautomer): 52+/− 2 Hz and 52 Hz
- Bulk water access to active site [5]: bulk water is excluded from the active site
- Binding to NS2B:NS3pro / affinity in words (NMR) [6]: the former has higher affinity than the latter
- Binding to S135A mutant [7]: do not interact with the S135A mutant; also recorded: no binding was observed; also recorded: complete absence of any binding

Molecule: CCCC[C@H](NC(=O)c1c(F)cccc1F)C(=O)N[C@@H](CCCCN)C(=O)N[C@@H](CCCNC(=N)N)C(=O)NC(CCCNC(=N)N)C(=O)C(F)(F)F (stereo partly drawn) [II, N-((9S,12S,15S)-1-amino-12-(4-aminobutyl)-9-(3-guanidinopropyl)-1-imino-8,11,14-trioxo-6-(2,2,2-trifluoroacetyl)-2,7,10,13-tetraazanonadecan-15-yl)-2,6-difluorobenzamide] ({Benzoyl(2,6-F2)}-[Nle]KR[ξR]-CF3)
- IC50 [8]: 19 µM

Molecule: CCCC[C@H](NC(=O)c1ccccc1)C(=O)N[C@@H](CCCCN)C(=O)N[C@@H](CCCNC(=N)N)C(=O)NC(CCCNC(=N)N)C(=O)C(F)(F)F (stereo partly drawn) [IV, N-((9S,12S,15S)-1-amino-12-(4-aminobutyl)-9-(3-guanidinopropyl)-1-imino-8,11,14-trioxo-6-(2,2,2-trifluoroacetyl)-2,7,10,13-tetraazanonadecan-15-yl)benzamide] (Bz-[Nle]KR[ξR]-CF3)
- IC50 [8]: 11 µM

Molecule: CCCC[C@H](NC(=O)c1ccc(F)cc1)C(=O)N[C@@H](CCCCN)C(=O)N[C@@H](CCCNC(=N)N)C(=O)NC(CCCNC(=N)N)C(=O)C(F)(F)F (stereo partly drawn) [V, N-((9S,12S,15S)-1-amino-12-(4-aminobutyl)-9-(3-guanidinopropyl)-1-imino-8,11,14-trioxo-6-(2,2,2-trifluoroacetyl)-2,7,10,13-tetraazanonadecan-15-yl)-4-fluorobenzamide] ({Benzoyl(4-F)}-[Nle]KR[ξR]-CF3)
- IC50 [8]: 24 µM

Molecule: Bz-Nle-Lys-Arg-Arg-CF3-ketone [IVa, isomer IVa of (IV), free 19F at − 82.82 ppm]
- Binding to NS2B:NS3pro / affinity in words (NMR) [6]: the signal of only one isomer (IVa) re-appeared
